Where “and” joins values, the source holds several entries; their conditions need not be identical. Identical values can stand only once.
Columns and labels:
Experiment in all cases: BFC debenzylase activity assay
K257A CYP3A4 = K257A CYP3A4 (Homo sapiens, UniProt P08684, K257A)
CYP3A4 (WT) = CYP3A4 (WT) (Homo sapiens, UniProt P08684)
K266A CYP3A4 = K266A CYP3A4 (Homo sapiens, UniProt P08684, K266A)
Sequence of K266A CYP3A4 (P08684 whole entry K266A): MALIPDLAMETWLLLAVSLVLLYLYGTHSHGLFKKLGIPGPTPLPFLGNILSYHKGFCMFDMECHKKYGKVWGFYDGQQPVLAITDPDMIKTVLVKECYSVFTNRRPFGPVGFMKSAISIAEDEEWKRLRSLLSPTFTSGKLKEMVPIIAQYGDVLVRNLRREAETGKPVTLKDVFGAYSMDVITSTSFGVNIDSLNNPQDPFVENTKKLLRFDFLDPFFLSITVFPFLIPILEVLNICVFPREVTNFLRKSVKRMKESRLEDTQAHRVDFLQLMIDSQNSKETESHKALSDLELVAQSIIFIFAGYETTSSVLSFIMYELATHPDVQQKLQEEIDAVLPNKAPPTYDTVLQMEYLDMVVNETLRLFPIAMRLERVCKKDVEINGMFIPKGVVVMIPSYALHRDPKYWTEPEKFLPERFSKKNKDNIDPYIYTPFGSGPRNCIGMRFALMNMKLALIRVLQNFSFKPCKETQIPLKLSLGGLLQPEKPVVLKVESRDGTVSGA

Sequence of K257A CYP3A4 (P08684 whole entry K257A): as the sequence (P08684 whole entry K266A) above, with K257A, A266K counted along it
Sequence of CYP3A4 (WT) (P08684 whole entry): as the sequence (P08684 whole entry K266A) above, with A266K counted along it

Question: With `O=c1cc(C(F)(F)F)c2ccc(OCc3ccccc3)cc2o1` [BFC] as the molecule, how does the “nH (Hill coefficient)” value (K257A CYP3A4; K257A CYP3A4) read?
Answer: 1.0

Question: And the “higher Vmax than wild type” value (K257A CYP3A4; K257A CYP3A4 vs WT)?
Answer: 28%

Question: And the “nH (Hill coefficient)” value (CYP3A4 (WT))?
Answer: 1.8 and 1.8 ± 0.1

Question: And the “nH (Hill coefficient)” value (K266A CYP3A4; K266A CYP3A4)?
Answer: 1.9 and 1.9 ± 0.1

Question: And the “higher Vmax than wild type” value (K266A CYP3A4; K266A CYP3A4 vs WT)?
Answer: 44%
